The source of these data is ChEMBL document CHEMBL6121056, “Aculeapyridones A-Q, Pyranopyridone Alkaloids with Protective Effects against Acetaminophen-Induced Acute Liver Injury Discovered from a Coculture of Aspergillus aculeatinus WHUF0198 and a Penicillium sp” (2025).

What all share (assay type): functional, Mus musculus
Assay [1] has as its system AML12. The experiment in a line: Protection against acetaminophen-induced acute liver injury in AML12 cells at 5 uM incubated for 12 hrs by MTT assay relative to control.
Assay [2] relates to AML12. The experiment in a line: Protection against acetaminophen-induced acute liver injury in AML12 cells at 10 uM incubated for 12 hrs by MTT assay relative to control.
Assay [3] deals with AML12. The experiment in a line: Cytoprotective activity against acetaminophen-induced acute liver injury in AML12 cells assessed as reduction in ALT level at 5 uM measured after 12 hrs relative to control. The arrangement: scale not given: the % may be the effect or the level left.

For the compound `CC[C@@H](C)/C=C/C=C/C=C(\C)[C@@H]1Oc2c(-c3ccc(O)cc3)c[nH]c(=O)c2C(=O)[C@H]1C`, the Activity in assay [1] was -10%; in assay [2] it was -50%.

As to `COn1ccc2c(c1=O)[C@@H](O)[C@@H](C)[C@H](/C(C)=C/C=C/C=C/[C@H](C)CC(=O)O)O2`, the Activity in assay [1] is recorded as 132%; in assay [2], 50%; in assay [3], 115%.

As to `CC[C@@H](C)/C=C/C=C/C=C(\C)[C@@H]1Oc2cc[nH]c(=O)c2[C@@H](O)[C@H]1C`, the values for the Activity in assay [1], in assay [2] and in assay [3] were 94%, -6.5% and 29%, respectively.

Regarding `CO[C@@H]1c2c(cc[nH]c2=O)O[C@@H](/C(C)=C/C=C/C=C/[C@H](CO)CCO)[C@@H]1C`, the results for the Activity in assay [1], in assay [2] and in assay [3] were 20%, 59% and 99%, respectively.

In the case of `CC[C@@H](/C=C/C=C/C=C(\C)[C@@H]1Oc2cc[nH]c(=O)c2[C@@H](OC)[C@H]1C)C(=O)O`, the Activity in assay [1] was 164%; in assay [2], -43%; in assay [3], 96%.

As to `CC[C@H](/C=C/C=C/C=C(\C)[C@@H]1Oc2cc[nH]c(=O)c2[C@@H](O)[C@H]1C)C(=O)O`, the Activity came out at 7% in assay [1], 56% in assay [2] and 118% in assay [3].

Turning to `C\C(=C/C=C/C=C/C(C)CC(=O)O)[C@@H]1Oc2cc[nH]c(=O)c2[C@@H](O)C1C` (stereo partly specified), the figures for the Activity in assay [1], in assay [2] and in assay [3] were 66%, 26% and 74%, respectively.

In the case of `CC[C@H](/C=C/C=C/C=C(\C)[C@@H]1Oc2ccn(OC)c(=O)c2[C@@H](O)[C@H]1C)CO`, the Activity in assay [1] is recorded as 61%; in assay [2] it was 64%; in assay [3], 71%.

Turning to `CO[C@@H]1c2c(cc[nH]c2=O)O[C@@H](/C(C)=C/C=C/C=C/[C@H](C)CC(=O)O)[C@@H]1C`, the Activity in assay [1] is listed as 120%; in assay [2], 18%; in assay [3], 86%.

In the case of `CC[C@H](/C=C/C=C/C=C(\C)[C@@H]1Oc2ccn(OC)c(=O)c2[C@@H](O)[C@H]1C)C(=O)O`, the Activity was 74% in assay [1], -14% in assay [2] and 52% in assay [3].

Take `CC[C@H](/C=C/C=C/C=C(\C)[C@@H]1Oc2ccn(OC)c(=O)c2[C@@H](O)[C@H]1C)COC=O`: the Activity in assay [1] amounted to 144%; in assay [2], 21%; in assay [3], 79%.

As for `CC[C@H](/C=C/C=C/C=C(\C)[C@@H]1Oc2cc[nH]c(=O)c2[C@@H](O)[C@H]1C)CO`, the Activity is on record as 17% in assay [1], 100% in assay [2] and 97% in assay [3].

As for `CC[C@H](/C=C/C=C/C=C(\C)[C@@H]1Oc2cc[nH]c(=O)c2[C@@H](OC)[C@H]1C)COC=O`, the figures for the Activity in assay [1] and in assay [2] were 15% and -32%, respectively.

Consider `CC[C@H](/C=C/C=C/C=C(\C)[C@@H]1Oc2cc[nH]c(=O)c2[C@@H](OC)[C@H]1C)CO`, for which the values for the Activity in assay [1], in assay [2] and in assay [3] were 125%, 53% and 82%, respectively.

`CC[C@@H](C)/C=C/C=C/C=C(\C)[C@@H]1Oc2cc[nH]c(=O)c2[C@@H](OC)[C@H]1C`: the Activity in assay [1] came out at 30%; in assay [2], 192%; in assay [3] it was 54%.

`CC(=O)N[C@@H](CS)C(=O)O` [ACETYLCYSTEINE]: the Activity amounted to 150% in assay [1], 165% in assay [2] and 45% in assay [3].
